From PubChem BioAssay (NCI)
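Cells were grown in 96-well plates and exposed to each compound for 48 hours at five concentrations; endpoints were interpolated linearly between bracketing concentrations, or set to the highest concentration if not reached. Definition used: TGI = concentration required for complete inhibition of growth.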

Columns and labels:
Assay in all cases: NCI-60 cell line screen, 48 h
HS 578T breast = test system: HS 578T breast
A498 renal = test system: A498 renal
UACC-62 melanoma = test system: UACC-62 melanoma
SN12C renal = test system: SN12C renal
786-0 renal = test system: 786-0 renal
CCRF-CEM leukemia = test system: CCRF-CEM leukemia
PC-3 prostate = test system: PC-3 prostate
MALME-3M melanoma = test system: MALME-3M melanoma
SW-620 colon = test system: SW-620 colon
OVCAR-5 ovarian = test system: OVCAR-5 ovarian
A549 NSCLC = test system: A549 NSCLC
COLO 205 colon = test system: COLO 205 colon
HCT-116 colon = test system: HCT-116 colon
CAKI-1 renal = test system: CAKI-1 renal
TK-10 renal = test system: TK-10 renal
SR leukemia = test system: SR leukemia
KM12 colon = test system: KM12 colon
SF-268 CNS = test system: SF-268 CNS
SNB-19 CNS = test system: SNB-19 CNS
SK-MEL-28 melanoma = test system: SK-MEL-28 melanoma
MDA-N = test system: MDA-N
HOP-92 NSCLC = test system: HOP-92 NSCLC
M14 melanoma = test system: M14 melanoma
NCI/ADR-RES ovarian = test system: NCI/ADR-RES ovarian
UACC-257 melanoma = test system: UACC-257 melanoma
UO-31 renal = test system: UO-31 renal
MDA-MB-231 breast = test system: MDA-MB-231 breast
IGROV1 ovarian = test system: IGROV1 ovarian
HOP-62 NSCLC = test system: HOP-62 NSCLC
MOLT-4 leukemia = test system: MOLT-4 leukemia
RXF 393 renal = test system: RXF 393 renal
SF-295 CNS = test system: SF-295 CNS
K-562 leukemia = test system: K-562 leukemia
RPMI-8226 leukemia = test system: RPMI-8226 leukemia
NCI-H522 lung = test system: NCI-H522 lung
ACHN renal = test system: ACHN renal
OVCAR-8 ovarian = test system: OVCAR-8 ovarian
SF-539 CNS = test system: SF-539 CNS
U251 CNS = test system: U251 CNS
NCI-H460 lung = test system: NCI-H460 lung
BT-549 breast = test system: BT-549 breast
MDA-MB-435 = test system: MDA-MB-435
HCT-15 colon = test system: HCT-15 colon
LOX IMVI melanoma = test system: LOX IMVI melanoma
SK-MEL-5 melanoma = test system: SK-MEL-5 melanoma
OVCAR-3 ovarian = test system: OVCAR-3 ovarian
OVCAR-4 ovarian = test system: OVCAR-4 ovarian
DU-145 prostate = test system: DU-145 prostate
SK-OV-3 ovarian = test system: SK-OV-3 ovarian
NCI-H226 lung = test system: NCI-H226 lung
HT29 colon = test system: HT29 colon
SNB-75 CNS = test system: SNB-75 CNS
HCC-2998 colon = test system: HCC-2998 colon
SK-MEL-2 melanoma = test system: SK-MEL-2 melanoma
NCI-H23 lung = test system: NCI-H23 lung
MCF7 breast = test system: MCF7 breast
HL-60(TB) leukemia = test system: HL-60(TB) leukemia
EKVX NSCLC = test system: EKVX NSCLC
T-47D breast = test system: T-47D breast

Compound `CC(C)=CCc1c(O)c(CC=C(C)C)c2oc(-c3ccc(O)cc3O)c(CC=C(C)C)c(=O)c2c1O` has a TGI (HS 578T breast) of 45.6 µM, a TGI (A498 renal) of 27.3 µM and a TGI (UACC-62 melanoma) of 20.3 µM. It also gave a TGI (SN12C renal) of 21.1 µM, a TGI (786-0 renal) of 21.4 µM and a TGI (CCRF-CEM leukemia) of 5.83 µM. It also gave a TGI (PC-3 prostate) of 18.4 µM, a TGI (MALME-3M melanoma) of 33.4 µM and a TGI (SW-620 colon) of 23.3 µM. It also gave a TGI (OVCAR-5 ovarian) of 28.3 µM, a TGI (A549 NSCLC) of 24.2 µM and a TGI (COLO 205 colon) greater than 59.5 µM. The TGI (HCT-116 colon) was 17 µM, the TGI (CAKI-1 renal) was 25.4 µM and the TGI (TK-10 renal) was 21.2 µM. For the same compound, the TGI (SR leukemia) was 9.88 µM, the TGI (KM12 colon) was 16.7 µM and the TGI (SF-268 CNS) was greater than 53.2 µM. It also gave a TGI (SNB-19 CNS) of 25.6 µM, a TGI (SK-MEL-28 melanoma) of 26.6 µM and a TGI (MDA-N) of 20.4 µM. It also gave a TGI (HOP-92 NSCLC) of 23 µM, a TGI (M14 melanoma) of 22.5 µM and a TGI (NCI/ADR-RES ovarian) of 53.4 µM. The TGI (UACC-257 melanoma) was 25.6 µM, the TGI (UO-31 renal) was 21.1 µM and the TGI (MDA-MB-231 breast) was 27.6 µM. It also gave a TGI (IGROV1 ovarian) of 23.6 µM, a TGI (HOP-62 NSCLC) of 23.4 µM and a TGI (MOLT-4 leukemia) of 14.6 µM. For the same compound, the TGI (RXF 393 renal) was 14.6 µM, the TGI (SF-295 CNS) was 20.3 µM and the TGI (K-562 leukemia) was 27.4 µM. The TGI (RPMI-8226 leukemia) was 10.9 µM, the TGI (NCI-H522 lung) was 24.9 µM and the TGI (ACHN renal) was 20.9 µM. For the same compound, the TGI (OVCAR-8 ovarian) was 19.7 µM, the TGI (SF-539 CNS) was 32.7 µM and the TGI (U251 CNS) was 22.8 µM. The TGI (NCI-H460 lung) was 17.8 µM, the TGI (BT-549 breast) was 21.6 µM and the TGI (MDA-MB-435) was 16.7 µM. It also gave a TGI (HCT-15 colon) of 23.8 µM, a TGI (LOX IMVI melanoma) of 22.5 µM and a TGI (SK-MEL-5 melanoma) of 23 µM. The TGI (OVCAR-3 ovarian) was 19.6 µM, the TGI (OVCAR-4 ovarian) was 18.1 µM and the TGI (DU-145 prostate) was 25.2 µM. The TGI (SK-OV-3 ovarian) was 26.2 µM, the TGI (NCI-H226 lung) was 47.6 µM and the TGI (HT29 colon) was 22.8 µM. The TGI (SNB-75 CNS) was 22.7 µM, the TGI (HCC-2998 colon) was 11.7 µM and the TGI (SK-MEL-2 melanoma) was 12.8 µM. The TGI (NCI-H23 lung) was 22 µM, the TGI (MCF7 breast) was 18.3 µM and the TGI (HL-60(TB) leukemia) was 21.7 µM. It also gave a TGI (EKVX NSCLC) of 27.9 µM and a TGI (T-47D breast) of 12.8 µM.
